Laboratory results: patent publication US20030175350A1, “Enteric preparations containing physiologically active peptides” (priority 2000, published 2003)

Key:
[1] = Absorbability of compound (1) in cynomolgus monkey by oral administration of tablets; type: in vivo
From the text: Blood was periodically collected, plasma was isolated, and then plasma concentration of unchanged was quantified with HPLC.

[2] = rat, in vivo, po; cited from earlier work

| Oral absorbability compared to rat and mouse [1] | Tmax compared to rat and mouse [1] | Compound | bioavailability [2] [%] |
| --- | --- | --- | --- |
| decreased absorbability | markedly delayed Tmax | C[C@@H]1OC(=O)NC1C(=O)N[C@@H](Cc1cscn1)C(=O)N1CCC[C@H]1C (stereo partly drawn) [compound (1)] |  |
|  |  | CN1C(=O)C[C@@H](C(=O)N[C@@H](Cc2c[nH]cn2)C(=O)N2CCC[C@H]2C(N)=O)NC1=O [taltirelin] | 3.9 |
